Reference: patent US20230183187A1, “QUINAZOLINE COMPOUNDS AS INHIBITORS OF PREMATURE TERMINATION CODONS” (CENTRE NATIONAL DE LA RECHERCHE SCIENTIFIQUE, priority 2020, published 2023)

Experiments:
HDQ-P1 cells = assay: WST1 tetrazolium viability assay, HDQ-P1; type: cell-based, human; conditions: HDQ-P1, 24 h, maximal dose used
Experimental: (§1) The inventors tested the effect of TLN68 on viability of NIH3T3, HDQ-P1 and HeLa cell lines by using a tetrazolium salt which is cleaved only by metabolically active cells. Cells were treated or not with a range of TLN68 doses during 24 h and viability was measured.

[1] = system: p53 (endogenous nonsense mutation R213X) in HDQ-P1 cells; assay: Western blot of full-length p53 in HDQ-P1 cells; type: cell-based, human; conditions: HDQ-P1, 48 h
Experimental: HDQ-P1 cells (R213X) were treated with G418 ([…]), or the selected molecules (TLN68 50 μM, TLN1399 50 μM, TLN236 30 μM and TLN309 40 μM), for 48 h. Cells were harvested by treatment with trypsin—EDTA (Invitrogen), lysed in 350 mM NaCl, 50 mM Tris—HCl pH 7.5, 1% NP-40, and protease inhibitor cocktail (Roche) and disrupted by passage through a syringe.
Total proteins were quantified with Bradford reagent (Biorad) and extracts were denatured by incubation in Laemmli buffer for 5 minutes at 90° C. The inventors subjected 30 μg of total protein from HDQ-1 cells to SDS—PAGE in 4/10% Bis—Tris gels. Proteins were transferred onto nitrocellulose membranes, according to the manufacturer's instructions (Biorad). Membranes were saturated by overnight incubation in 5% skimmed milk powder in PBS, and incubated for 1 hour with the primary monoclonal antibody, DO-1 (N-terminal epitope mapping between amino acid residues 11 and 25 of p53; Santa Cruz Biotechnologies, 1/400) or a monoclonal antibody against mouse actin (Millipore, 1/2000). After three washes in PBS supplemented with 0.1% Tween, the membranes were incubated with the secondary antibody [horseradish peroxidase-conjugated anti-mouse IgG ( 1/2500)] for 45 minutes. The membranes were washed five times and chemiluminescence was detected with ECL Prime Western Blotting Detection Reagents (Amersham, GE Healthcare). The signal was quantified with ImageJ software.

[2] = system: p53-R213X transcriptional activity; assay: TP53 protein activity assay (p53BS-luc reporter) in H1299 cells; type: cell-based, human; conditions: H1299 cotransfected with pCMV-R213X, pCMVLacZ, 20 hours, TLN68 20, 50, 80 and 100 mM as printed
Experimental: The inventors investigated the transcriptional activity of the p53 protein in H1299, a p53-null cell line. Cells were cotransfected, by the JetPei method, with the p53BS-luc reporter plasmid containing the firefly luciferase gene downstream from seven p53 binding sites, the pCMVLacZ and the pCMVp53R213X containing the p53 cDNA interrupted by the stop mutation R213X. TLN68 ([…]) was added to the medium just before transfection for a total of 20 hours of treatment. Protein extracts were then prepared and enzymatic activities were measured. Transfection with pCMVLacZ was used to normalise transfection efficiency, cell viability and protein extraction. At least six independent transfection experiments were performed for each set of conditions.

[3] = system: -1 programmed ribosomal frameshifting from HIV-1; assay: Frameshifting test, dual reporter, NIH3T3 cells; type: cell-based, mouse; conditions: NIH3T3, TLN68 80 μM, HIV-1 frameshift signal
Experimental: To determinate if TLN68 alter global translational fidelity or if it is specific of readthrough event the inventors tested capacity of this molecule to induce frameshifting. They used a frameshift target which have already been used to study the minus1 frameshift signal of the retrovirus HIV-1 (Stahl et al, 1995). This 54 nucleotide sequence was inserted in the dual reporter vector and used to transfect NIH3T3 cells. Transfected cells were treated or not with TLN68 at 80 μM.

NIH3T3 cells = assay: WST1 tetrazolium viability assay, NIH3T3; type: cell-based, mouse; conditions: NIH3T3, 24 h, maximal dose used
Experimental: as §1

For `Cc1nc(NC(=N)N)nc2ccccc12` [TLN68], which viable cells (HDQ-P1 cells) is on record?
Its viable cells is 70%.

What about the “level of induction of full-length p53 compared with G418” value ([1]; G418 10 and 20 mM) of the same molecule?
The value was “even higher to the one obtained in presence of G418”.

What about the “production of the full-length p53 (western blot)” value ([1]; TLN68 50 μM, TLN236 30 μM, TLN309 40 μM) of the same molecule?
Its value is “stimulate the production of the full-length p53”.

And the “increase of the p53-dependent luciferase” value [2]?
Its value is 3.5 fold.

And the “impact on -1 translational frameshifting” value [3]?
Its value is “no impact on translational frameshifting”.

And the viable cells (NIH3T3 cells)?
The viable cells was 80%.
